According to EP3212201B1, “NUCLEOSIDE KINASE INHIBITORS” (BCI Pharma, priority 2014, dated 2016):

How the values were obtained:
Assay in all cases: FRET-based coupled-enzyme protein kinase inhibition assay
Format in all cases: biochemical
Conditions in all cases: compound at 10 µM, 1% DMSO
CHEK1 (CHK1) = biological target: T1, CHEK1 (CHK1) (Homo sapiens, UniProt O14757)
T1 sequence (O14757 1-476): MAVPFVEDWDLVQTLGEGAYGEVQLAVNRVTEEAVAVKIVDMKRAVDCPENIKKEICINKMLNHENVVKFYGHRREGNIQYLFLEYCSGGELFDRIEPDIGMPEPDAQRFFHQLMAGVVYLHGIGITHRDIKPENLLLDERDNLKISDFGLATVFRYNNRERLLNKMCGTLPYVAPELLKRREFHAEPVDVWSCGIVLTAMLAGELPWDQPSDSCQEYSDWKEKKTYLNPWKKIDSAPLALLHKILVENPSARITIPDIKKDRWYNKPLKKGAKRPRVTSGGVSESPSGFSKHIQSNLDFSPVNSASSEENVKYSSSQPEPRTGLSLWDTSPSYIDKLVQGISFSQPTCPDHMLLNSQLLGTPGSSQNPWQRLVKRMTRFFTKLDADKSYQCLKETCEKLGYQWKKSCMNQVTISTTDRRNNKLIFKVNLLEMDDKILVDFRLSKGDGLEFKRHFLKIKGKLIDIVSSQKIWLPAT
Experimental: (§1) A biochemical assay was then performed in order to measure the protein kinase inhibition. It employed a fluorescence-based coupled-enzyme format and was based on the differential sensitivity of phosphorylated and non-phosphorylated peptides to proteolytic cleavage.
(§2) Peptide substrates were labeled with two fluorophores. The two fluorohores used were coumarin (donor) and fluorecein (acceptor), and each of the peptides was bearing one at one end, and one at the other end, which made up fluorescence resonance energy transfer (FRET) pair peptides.
(§3) In a primary reaction, the FRET-peptides were submitted to a phosphorylation reaction, in which one of adenosine triphosphate (ATP)'s phosphate groups was transferred to the peptide in the presence of kinase. When kinase inhibition takes place, the peptide will not be phosphorylated. In a secondary reaction, both the phosphorylated FRET-peptides and the non-phosphorylated FRET-peptides were reacted with a development reagent. It has been observed that non-phosphorylated FRET-peptides were cleaved, whereas the phosphorylted FRET-peptide remained intact.
(§4) Cleavage disrupts FRET between the donor (i.e., coumarin) and acceptor (i.e., fluorescein) fluorophores on the FRET-peptide, whereas uncleaved, phosphorylated FRET-peptides maintain FRET. A ratiometric method, which calculates the Emission Ratio of donor emission to acceptor emission after excitation of the donor fluorophore at 400 nm, is used to quantitate reaction progress, as shown in the equation below. [formula]
(§5) A significant benefit of this ratiometric method for quantitating reaction progress is the elimination of well-to-well variations in FRET-peptide concentration and signal intensities. As a result, the assay yields very high Z'factor values (>0.7) at a low percent phosphorylation. Both cleaved and uncleaved FRET-peptides contribute to the fluorescence signals and therefore to the Emission Ratio. The extent of phosphorylation of the FRET-peptide can be calculated from the Emission Ratio. The Emission Ratio will remain low if the FRET-peptide is phosphorylated (i.e., no kinase inhibition) and will be high if the FRET-peptide is non-phosphorylated (i.e., kinase inhibition).
(§6) The Test Compounds were screened in 1% DMSO. For 10 point titrations, 3-fold serial dilutions were prepared from the starting concentration.
(§7) All Peptide/Kinase Mixtures were diluted to a 2X working concentration in the appropriate Kinase Buffer (50 mM HEPES pH 7.5, 0.01% BRIJ-35, 10 mM MgCl2, 1 mM […]).
(§8) All ATP Solutions were diluted to a 4X working concentration in Kinase Buffer. ATP Km apparent was previously determined using another assay.
(§9) 2.5 µL - 4X Test Compound or 100 nL 100X plus 2.4 µL kinase buffer were mixed together with 2. 5 µL - 2X Peptide/Kinase Mixture and 3. 2.5 µL - 4X ATP Solution.
(§10) The solution was plate-shaked for 30 seconds, then incubated 60 minutes at room temperature for kinase reaction. 5 µL of Development Reagent Solution were then added, followed by a 30-second plate shake and a 60-minute Development Reaction incubation at room temperature. The results were read on a fluorescence plate reader and the data was analyzed.
(§11) The compounds that show the highest Emission Ratio are the ones that also show the highest protein kinase inhibition properties.

MAPK1 (ERK2) = MAPK1 (ERK2) (Homo sapiens, UniProt P28482)
Experimental: as §1, §2, §3, §4, §5, §6, §7, §8, §9, §10, §11

KDR (VEGFR2) = KDR (VEGFR2) (Homo sapiens, UniProt P35968)
Experimental: as §1, §2, §3, §4, §5, §6, §7, §8, §9, §10, §11

PRKCB1 (PKC beta I) = PRKCB1 (PKC beta I) (Homo sapiens, UniProt P05771)
Experimental: as §1, §2, §3, §4, §5, §6, §7, §8
The Development Reagent was diluted in Development Buffer. For 5 mL 10X Novel PKC Lipid Mix, 10X Novel PKC Lipid Mix being composed of 2 mg/ml Phosphatidyl Serine, 0.2 mg/ml DAG in 20 mM HEPES, pH 7.4, 0.3% CHAPS, 10 mg of Phosphatidyl Serine (Avanti Polar Lipids Part# 8400032C or 840039C) and 1 mg DAG (Avanti Polar Lipids Part# 800811C) were added to a glass tube.
The chloroform was removed from the lipid mixture by evaporating to a clear, thin film under a stream of nitrogen. Continuous rotation of the tube, at an angle to ensure maximum surface area of the lipid solution, has promoted the thinnest film. 5mL resuspension buffer, 20 mM HEPES, 0.3% CHAPS, pH 7.4, were added to the dried lipid mix, which was then gently heated to 50-60°C for 1-2 minutes and vortexed in short intervals until the lipids are dissolved to a clear or slightly hazy solution. The lipids were typically in solution after 2-3 heat-vortex cycles. The solution was cooled to room temperature, aliquoted into single use volumes and stored at -20 °C.
as §9
The solution was plate-shaked for 30 seconds, then incubated 60 minutes at room temperature for kinase reaction. […]

Chain of PRKCB1 (PKC beta I) (P05771 whole entry, species assumed): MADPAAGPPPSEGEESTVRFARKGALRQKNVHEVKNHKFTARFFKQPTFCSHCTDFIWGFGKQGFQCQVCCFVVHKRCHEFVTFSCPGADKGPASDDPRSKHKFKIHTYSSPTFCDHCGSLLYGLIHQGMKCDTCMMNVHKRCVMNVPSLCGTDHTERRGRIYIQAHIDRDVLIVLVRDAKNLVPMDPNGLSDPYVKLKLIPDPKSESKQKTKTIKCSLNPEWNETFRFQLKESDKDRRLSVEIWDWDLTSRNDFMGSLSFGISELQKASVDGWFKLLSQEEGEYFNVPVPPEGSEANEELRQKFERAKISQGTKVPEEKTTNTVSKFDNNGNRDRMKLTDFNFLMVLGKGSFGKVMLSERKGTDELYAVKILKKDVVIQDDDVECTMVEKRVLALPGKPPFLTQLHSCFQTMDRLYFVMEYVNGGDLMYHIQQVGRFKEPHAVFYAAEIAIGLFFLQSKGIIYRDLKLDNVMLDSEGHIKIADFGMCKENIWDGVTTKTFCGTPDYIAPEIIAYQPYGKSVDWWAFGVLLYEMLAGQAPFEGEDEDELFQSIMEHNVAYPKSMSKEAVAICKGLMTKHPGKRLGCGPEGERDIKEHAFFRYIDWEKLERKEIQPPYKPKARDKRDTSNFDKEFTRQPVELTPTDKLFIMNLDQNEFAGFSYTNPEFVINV
Chain of KDR (VEGFR2) (P35968 20-1356, species assumed): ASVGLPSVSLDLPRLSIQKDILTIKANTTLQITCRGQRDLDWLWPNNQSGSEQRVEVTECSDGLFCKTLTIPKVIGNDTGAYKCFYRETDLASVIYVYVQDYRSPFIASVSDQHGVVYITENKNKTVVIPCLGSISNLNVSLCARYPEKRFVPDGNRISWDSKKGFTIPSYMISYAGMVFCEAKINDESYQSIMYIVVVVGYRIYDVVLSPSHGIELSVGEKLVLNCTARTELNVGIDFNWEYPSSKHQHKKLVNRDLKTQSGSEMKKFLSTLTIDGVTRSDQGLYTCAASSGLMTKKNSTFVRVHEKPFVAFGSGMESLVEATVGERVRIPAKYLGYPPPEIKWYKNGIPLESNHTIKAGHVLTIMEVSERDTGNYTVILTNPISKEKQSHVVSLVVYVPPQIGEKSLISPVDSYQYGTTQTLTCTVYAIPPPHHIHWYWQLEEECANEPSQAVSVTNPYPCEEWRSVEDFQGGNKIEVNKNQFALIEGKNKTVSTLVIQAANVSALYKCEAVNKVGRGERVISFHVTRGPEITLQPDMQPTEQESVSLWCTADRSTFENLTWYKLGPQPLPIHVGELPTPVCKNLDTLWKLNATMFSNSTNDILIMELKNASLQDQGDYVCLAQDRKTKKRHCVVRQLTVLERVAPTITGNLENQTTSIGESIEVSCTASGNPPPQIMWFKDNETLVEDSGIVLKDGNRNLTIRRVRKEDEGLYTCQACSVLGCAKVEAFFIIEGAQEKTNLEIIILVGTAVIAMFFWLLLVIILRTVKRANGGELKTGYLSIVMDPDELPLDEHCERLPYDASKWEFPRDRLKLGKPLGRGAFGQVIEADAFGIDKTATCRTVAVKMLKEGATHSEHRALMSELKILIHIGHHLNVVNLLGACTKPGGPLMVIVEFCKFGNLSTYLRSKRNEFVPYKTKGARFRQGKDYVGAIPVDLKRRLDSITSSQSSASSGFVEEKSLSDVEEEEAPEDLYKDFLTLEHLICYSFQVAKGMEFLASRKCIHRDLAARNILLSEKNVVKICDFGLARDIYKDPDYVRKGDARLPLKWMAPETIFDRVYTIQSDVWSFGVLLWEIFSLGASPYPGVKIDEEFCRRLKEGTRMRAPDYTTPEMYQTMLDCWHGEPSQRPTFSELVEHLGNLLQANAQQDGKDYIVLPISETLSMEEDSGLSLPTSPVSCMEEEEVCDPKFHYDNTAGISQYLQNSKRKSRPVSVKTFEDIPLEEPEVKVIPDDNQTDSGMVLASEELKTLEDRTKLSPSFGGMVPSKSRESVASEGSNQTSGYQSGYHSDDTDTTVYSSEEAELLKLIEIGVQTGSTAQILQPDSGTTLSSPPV
Chain of MAPK1 (ERK2) (P28482 whole entry, species assumed): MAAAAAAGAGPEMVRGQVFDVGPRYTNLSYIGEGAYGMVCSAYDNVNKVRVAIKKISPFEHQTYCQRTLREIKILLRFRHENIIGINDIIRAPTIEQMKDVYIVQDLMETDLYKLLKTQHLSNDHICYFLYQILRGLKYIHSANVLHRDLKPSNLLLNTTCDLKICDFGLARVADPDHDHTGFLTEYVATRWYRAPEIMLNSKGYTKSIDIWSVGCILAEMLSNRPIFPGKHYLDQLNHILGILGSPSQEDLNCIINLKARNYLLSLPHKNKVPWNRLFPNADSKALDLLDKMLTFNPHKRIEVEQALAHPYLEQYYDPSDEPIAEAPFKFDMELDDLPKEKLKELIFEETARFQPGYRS

| inhibition at 10 µM (CHEK1 (CHK1)) | inhibition at 10 µM (MAPK1 (ERK2)) | inhibition at 10 µM (KDR (VEGFR2)) | inhibition at 10 µM (PRKCB1 (PKC beta I)) | SMILES |
| --- | --- | --- | --- | --- |
| -3% | 8% | 8% | 5% | Nc1ncnc2c1ncn2[C@@H]1O[C@H](COC(=O)N[C@@H]2CCN(Cc3ccccc3)C2)[C@@H](O)[C@H]1O [Compound C10] |
| 14% | 11% | -3% | -6% | Nc1ncnc2c1ncn2[C@@H]1O[C@H](COC(=O)N2CCC[C@H]2CO)[C@@H](O)[C@H]1O [Compound C9] |
| -14% | 9% | -7% | -8% | Nc1ncnc2c1ncn2[C@@H]1O[C@H](COC(=O)NCCN2CCCC2=O)[C@@H](O)[C@H]1O [Compound C22] |
| 18% | 9% | 3% | 1% | Nc1ncnc2c1ncn2[C@@H]1O[C@H](COC(=O)N2CCC(Cc3ccc(F)cc3)C2)[C@@H](O)[C@H]1O (stereo partly shown) [Compound C66] |
| -20% | 9% | -6% | -6% | Nc1ncnc2c1ncn2[C@@H]1O[C@H](COC(=O)N2CCN(C(=O)N3CCOCC3)CC2)[C@@H](O)[C@H]1O [Compound C89] |
| -16% | 7% | -10% | 4% | CC(C)N1CCC(NC(=O)OC[C@H]2O[C@@H](n3cnc4c(N)ncnc43)[C@H](O)[C@@H]2O)CC1 [Compound C19] |
| -8% | 13% | -3% | 1% | Nc1ncnc2c1ncn2[C@@H]1O[C@H](COC(=O)N2CCS(=O)(=O)CC2)[C@@H](O)[C@H]1O [Compound C100] |
| -8% | 16% | 8% | -1% | CS(=O)(=O)N1CC2(CCN(C(=O)OC[C@H]3O[C@@H](n4cnc5c(N)ncnc54)[C@H](O)[C@@H]3O)CC2)c2ccccc21 [Compound C98] |
| -9% | 8% | 2% | -1% | CN(C)CCNC(=O)OC[C@H]1O[C@@H](n2cnc3c(N)ncnc32)[C@H](O)[C@@H]1O [Compound C85] |
| -11% | 16% | -12% | -5% | N#CCCN1CCN(C(=O)OC[C@H]2O[C@@H](n3cnc4c(N)ncnc43)[C@H](O)[C@@H]2O)CC1 [Compound C70] |
| 20% | 11% | -3% | 0% | Nc1ncnc2c1ncn2[C@@H]1O[C@H](COC(=O)N2CCN(CCc3ccccc3)CC2)[C@@H](O)[C@H]1O [Compound C26] |
| -11% | 8% | 4% | -1% | C[C@@H](NC(=O)OC[C@H]1O[C@@H](n2cnc3c(N)ncnc32)[C@H](O)[C@@H]1O)c1ccc(Cl)cc1 [Compound C4] |
| -8% | 10% | -3% | 7% | Nc1ncnc2c1ncn2[C@@H]1O[C@H](COC(=O)N2CCN(Cc3ccccc3)CC2CO)[C@@H](O)[C@H]1O (stereo partly shown) [Compound C13] |
| 2% | 9% | -7% | 0% | CN1CCN(CCNC(=O)OC[C@H]2O[C@@H](n3cnc4c(N)ncnc43)[C@H](O)[C@@H]2O)CC1 [Compound C46] |
| -8% | 16% | 0% | -11% | Nc1ncnc2c1ncn2[C@@H]1O[C@H](COC(=O)NC[C@H](O)CO)[C@@H](O)[C@H]1O [Compound C8] |
| -20% | 7% | -6% | 6% | Nc1ncnc2c1ncn2[C@@H]1O[C@H](COC(=O)NCCCc2nc3ccccc3[nH]2)[C@@H](O)[C@H]1O [Compound C1] |
